Assay results as given in ChEMBL document CHEMBL4706618, “Discovery of lysosome-targeted covalent anticancer agents based on isosteviol skeleton” (Eur J Med Chem, 2021).

Test: GSH reactivity in pH 7.4 sodium phosphate deuterium oxide buffer assessed as half life in presence of glutathione measured up to 6 hrs by 1H NMR analysis
Type: ADME
Conditions: sodium phosphate deuterium oxide buffer with glutathione

half-life: 30 min
SMILES: C=C1C(=O)C=C[C@]2(C)[C@@H]1CC[C@@]13C/C(=N\OC)[C@@](C)(CC[C@H]12)C3
